Measurements reported in patent US9586931B2 (Merck Sharp & Dohme Corp., priority 2012, dated 2017).

These compounds were tested against T1, recombinant human GST-Syk (Homo sapiens, UniProt P43405) (assay: Homogeneous Time-Resolved Fluorescence (HTRF) assay for the recombinant human Syk enzyme). Conditions: recombinant human GST-Syk 5 pM, ATP 25 μM, 10-dose titration 10 μM to 0.508 nM; read-out: rhSYK Activity IC50.
T1 construct: purchased Carna Biosciences 08-176
Assay type: biochemical
Outline: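 GST-hSyk fusion protein phosphorylated a peptide for 45 min at room temperature. The reaction was quenched with 2 nM Eu-anti-phosphotyrosine antibody and 70 nM SA-APC in 15 mM Tris pH 7.5, 40 mM EDTA, 0.01% Tween 20. The HTRF signal was read after 30 min.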

Question: For `Cc1cc(Nc2nccc(C)n2)cc(-c2cn(C3CCCCC3(C)O)nn2)c1` (single isomer, unassigned) [Example 7.28, 1-methyl-2-(4-{3-methyl-5-[(4-methylpyrimidin-2-yl)amino]phenyl}-1H-1,2,3-triazol-1-yl)cyclohexanol], which IC50 is on record?
Answer: Its IC50 is 77.6 nM.

Question: `Cc1cc(Nc2ncc(F)c(C(F)F)n2)cc(-c2cn(C3CCCCC3O)nn2)c1` (single isomer, unassigned) [Example 7.29, 2-[4-(3-{[4-(difluoromethyl)-5-fluoropyrimidin-2-yl]amino}-5-methylphenyl)-1H-1,2,3-triazol-1-yl]cyclohexanol] was tested. Which IC50 did it give?
Answer: Its IC50 is 14.3 nM.

Question: `Cc1cc(Nc2ncc(F)c(C(F)F)n2)cc(-c2cn(C3CCCCC3O)nn2)c1` (single isomer, unassigned) [Example 7.30, 2-[4-(3-{[4-(difluoromethyl)-5-fluoropyrimidin-2-yl]amino}-5-methylphenyl)-1H-1,2,3-triazol-1-yl]cyclohexanol] was tested. Which IC50 did it give?
Answer: Its IC50 is 9.9 nM.

Question: How did the IC50 turn out when `Cc1cc(Nc2nccc(C(F)F)n2)cc(-c2cn(CC3(C)CNC(=O)O3)nn2)c1` (single isomer, unassigned) [Example 7.31, 5-{[4-(3-{[4-(difluoromethyl)pyrimidin-2-yl]amino}-5-methylphenyl)-1H-1,2,3-triazol-1-yl]methyl}-5-methyl-1,3-oxazolidin-2-one] was run?
Answer: The IC50 was 8 nM.

Question: For `Cc1cc(Nc2nccc(C(F)F)n2)cc(-c2cn(CC3(C)CNC(=O)O3)nn2)c1` (single isomer, unassigned) [Example 7.32, 5-{[4-(3-{[4-(difluoromethyl)pyrimidin-2-yl]amino}-5-methylphenyl)-1H-1,2,3-triazol-1-yl]methyl}-5-methyl-1,3-oxazolidin-2-one], which IC50 is on record?
Answer: The IC50 was 5 nM.

Question: `Cc1cc(Nc2ncc(F)c(C(F)F)n2)cc(-c2cn(CC3OC(=O)NC34CC4)nn2)c1` (single isomer, unassigned) [Example 7.33, 7-{[4-(3-{[4-(difluoromethyl)-5-fluoropyrimidin-2-yl]amino}-5-methylphenyl)-1H-1,2,3-triazol-1-yl]methyl}-6-oxa-4-azaspiro[2.4]heptan-5-one] was tested. Which IC50 did it give?
Answer: Its IC50 is 11.1 nM.

Question: Which IC50 does the source give for `Cc1cc(Nc2ncc(F)c(C(F)F)n2)cc(-c2cn(CC3OC(=O)NC34CC4)nn2)c1` (single isomer, unassigned) [Example 7.34, 7-{[4-(3-{[4-(difluoromethyl)-5-fluoropyrimidin-2-yl]amino}-5-methylphenyl)-1H-1,2,3-triazol-1-yl]methyl}-6-oxa-4-azaspiro[2.4]heptan-5-one] here?
Answer: The IC50 was 9.9 nM.

Question: `Cc1cc(Nc2ncc(F)c(C(F)F)n2)cc(-c2cn(CC3CNC(=O)O3)nn2)c1` (single isomer, unassigned) [Example 7.35, 5-{[4-(3-{[4-(difluoromethyl)-5-fluoropyrimidin-2-yl]amino}-5-methylphenyl)-1H-1,2,3-triazol-1-yl]methyl}-1,3-oxazolidin-2-one] was tested. Which IC50 did it give?
Answer: The IC50 was 7.6 nM.

Question: How did the IC50 turn out when `Cc1cc(Nc2ncc(F)c(C(F)F)n2)cc(-c2cn(CC3OC(=O)NC3C)nn2)c1` (single isomer, unassigned) [Example 7.37, 5-{[4-(3-{[4-(difluoromethyl)-5-fluoropyrimidin-2-yl]amino}-5-methylphenyl)-1H-1,2,3-triazol-1-yl]methyl}-4-methyl-1,3-oxazolidin-2-one] was run?
Answer: Its IC50 is 15.9 nM.

Question: Which IC50 does the source give for `Cc1cc(Nc2ncc(F)c(C(F)F)n2)cc(-c2cn(CC3OC(=O)NC3C)nn2)c1` (single isomer, unassigned) [Example 7.38, 5-{[4-(3-{[4-(difluoromethyl)-5-fluoropyrimidin-2-yl]amino}-5-methylphenyl)-1H-1,2,3-triazol-1-yl]methyl}-4-methyl-1,3-oxazolidin-2-one] here?
Answer: The IC50 was 33.1 nM.

Question: How did the IC50 turn out when `Cc1cc(Nc2ncc(F)c(C(F)F)n2)cc(-c2cn(CC3OC(=O)NC3C)nn2)c1` (single isomer, unassigned) [Example 7.39, 5-{[4-(3-{[4-(difluoromethyl)-5-fluoropyrimidin-2-yl]amino}-5-methylphenyl)-1H-1,2,3-triazol-1-yl]methyl}-4-methyl-1,3-oxazolidin-2-one] was run?
Answer: The IC50 was 12.3 nM.

Question: For `Cc1cc(Nc2ncc(F)c(C(F)F)n2)cc(-c2cn(CC3OC(=O)NC3C)nn2)c1` (single isomer, unassigned) [Example 7.40, 5-{[4-(3-{[4-(difluoromethyl)-5-fluoropyrimidin-2-yl]amino}-5-methylphenyl)-1H-1,2,3-triazol-1-yl]methyl}-4-methyl-1,3-oxazolidin-2-one], which IC50 is on record?
Answer: Its IC50 is 25.7 nM.

Question: With `Cc1cc(Nc2nccc(C(F)F)n2)cc(-c2cn(CC3OC(=O)NC3C)nn2)c1` (single isomer, unassigned) [Example 7.41, 5-{[4-(3-{[4-(difluoromethyl)pyrimidin-2-yl]amino}-5-methylphenyl)-1H-1,2,3-triazol-1-yl]methyl}-4-methyl-1,3-oxazolidin-2-one] as the compound, how does the IC50 read?
Answer: Its IC50 is 12.8 nM.

Question: For `Cc1cc(Nc2nccc(C(F)F)n2)cc(-c2cn(CC3OC(=O)NC3C)nn2)c1` (single isomer, unassigned) [Example 7.42, 5-{[4-(3-{[4-(difluoromethyl)pyrimidin-2-yl]amino}-5-methylphenyl)-1H-1,2,3-triazol-1-yl]methyl}-4-methyl-1,3-oxazolidin-2-one], which IC50 is on record?
Answer: Its IC50 is 10.7 nM.

Question: `Cc1cc(Nc2cc(C(F)F)ccn2)nc(-c2cn(CC3OC(=O)NC3C)nn2)c1` (single isomer, unassigned) [Example 7.43, 5-{[4-(6-{[4-(difluoromethyl)pyridin-2-yl]amino}-4-methylpyridin-2-yl)-1H-1,2,3-triazol-1-yl]methyl}-4-methyl-1,3-oxazolidin-2-one] was tested. Which IC50 did it give?
Answer: Its IC50 is 3.8 nM.

Question: For `Cc1cc(Nc2cc(C(F)F)ccn2)nc(-c2cn(CC3OC(=O)NC3C)nn2)c1` (single isomer, unassigned) [Example 7.44, 5-{[4-(6-{[4-(difluoromethyl)pyridin-2-yl]amino}-4-methylpyridin-2-yl)-1H-1,2,3-triazol-1-yl]methyl}-4-methyl-1,3-oxazolidin-2-one], which IC50 is on record?
Answer: Its IC50 is 18 nM.

Question: `Cc1cc(Nc2cc(C(F)(F)F)ccn2)nc(-c2cn(C3CCC(C(=O)O)C(C)(C)C3)nn2)c1` (single isomer, unassigned) [Example 9.1, (R or S) 2,2-Dimethyl-4-[4-(4-methyl-6-{[4-(trifluoromethyl)pyridin-2-yl]amino}pyridin-2-yl)-1 H-1,2,3-triazol-1-yl]cyclohexanecarboxylic acid] was tested. Which IC50 did it give?
Answer: The IC50 was 3.7 nM.

Question: With `Cc1cc(Nc2cc(C(F)(F)F)ccn2)nc(-c2cn(C3CCCCC(O)C3O)nn2)c1` (single isomer, unassigned) [Example 10.2, 3-[4-(4-methyl-6-{[4-(trifluoromethyl)pyridin-2-yl]amino}pyridin-2-yl)-1H-1,2,3-triazol-1-yl]cycloheptane-1,2-diol] as the compound, how does the IC50 read?
Answer: Its IC50 is 17.7 nM.

Question: With `Cc1cc(Nc2cc(C(F)(F)F)ccn2)nc(-c2cn(C3CCCCC(O)C3O)nn2)c1` (single isomer, unassigned) [Example 10.3, 3-[4-(4-methyl-6-{[4-(trifluoromethyl)pyridin-2-yl]amino}pyridin-2-yl)-1H-1,2,3-triazol-1-yl]cycloheptane-1,2-diol] as the compound, how does the IC50 read?
Answer: Its IC50 is 1 nM.

Question: Which IC50 does the source give for `Cc1cc(Nc2cc(C(F)(F)F)ccn2)nc(-c2cn(C3CCCCC(O)C3O)nn2)c1` (single isomer, unassigned) [Example 10.4, 3-[4-(4-methyl-6-{[4-(trifluoromethyl)pyridin-2-yl]amino}pyridin-2-yl)-1H-1,2,3-triazol-1-yl]cycloheptane-1,2-diol] here?
Answer: The IC50 was 3.3 nM.
